Data: US4340602A, “Compositions inhibiting estrogen sulfotransferase activity” (Wayne State University, priority 1978, dated 1982)
Several values for one entry are separate records, joined by “and”; a condition that tells them apart may be missing. Equal entries are not always repeated.

Assays:
human endometrium = experiment: Oxidation and sulfurylation of tritiated E2 by human endometrial curettings; format: in vitro ADME; conditions: 0.003 µM
Protocol: (§1) Radioisotopes. [6,7-^3 H]E2 and [2,4,6,7-^3 H]E2 were obtained from New England Nuclear Corp., Boston, Mass., and purified on ITLC-SA (Gelman Instrument Co.) with CHCl3 :CH3 OH (97:3) as the developing solvent. Na2^35 SO4 was obtained from New England Nuclear Corp. and used directly from the bottle.
(§2) Human endometria. Endometrial specimens (60-1500 mg) were gathered from the operating room at the time of surgery and placed in 0.9% saline solution on ice. Most patients (22) were young women undergoing tubal ligations for the purpose of sterilization, two patients were having IUD's removed and eight patients (hysterectomies and laparoscopies) had normal endometria upon histological examination. All had had at least one pregnancy, had no endocrine problems, were cycling normally and were not taking any drugs, except for two patients on Librium® and two on Aldoril®. Ages ranged from 23 to 48 years, the average being 31±5 years.
(§3) Metabolism. Amounts varying from 55 to 400 mg of endometrium were incubated in 2.5 ml of modified bicarbonate buffer with 10 μl of [6,7-^3 H]E2 (3×10^-9 M) and 100 μl of Na2^35 SO4 (1×10^-4 M). The remainder of the procedure was the same as described for gilt uterus in Example 2

[1] = as above; format: in vitro ADME; conditions: human, endometrium, Table IV, 2 h, 3×10^-9 M E2
Protocol: as §1, §2, §3

in vitro = in vitro ADME, porcine; conditions: pig, minced uterus
Text: (§4) Animals. Gilts (virgin female pigs) or sows (previously pregnant pigs) in estrus from the pig farm at Michigan State University were mated with boars of established fertility. Following insemination, the females were sacrificed at various times up to 25 days later. Uteri were removed and immediately chilled on ice. Fertilization was confirmed initially by microscopic examination of oviductal washings for fertilized ova (2-5 days following insemination) by histological inspection of the corpus luteum and uterus (8-13 days) and later (17-25 days) by gross inspection of the uterus for the amniotic sac and fetuses.
as §1, with “(45 Ci/mmol) was” for “and [2,4,6,7-^3 H]E2 were”, “SO4 (800-1000 mCi/mmol)” for “SO4”
(§5) Incubation and isolation of [^3 H]E2 and Na2^35 SO4 metabolites. Samples of whole uterus (400 mg), minced in 0.9% saline, were filtered over medium coarse nylon gauze and placed in 2.5 ml of a modified Krebs-Ringer bicarbonate buffer (MgCl2 instead of MgSO4) with glucose (1.5 mg/ml). After the [6,7-^3 H]E2 (3×10^-9 M) and Na2^35 SO4 (1×10^-4 M) were added, the mixture was incubated for 2 hr at 37° C. under […]. The incubate was then boiled for 2 min. to stop the enzymatic reactions. A control was included with each experiment, which contained all of the incubation mixture, and was carried throughout the entire procedure except for the actual incubation.
(§6) The filtered tissue was extracted in 2:1 CHCl3 :CH3 OH (10 ml) for 2 hr, and this extract, reduced almost to dryness, was recombined with the incubation supernatant. This combination in turn was extracted with ethyl acetate (2.5 ml, 3 times) at neutral pH in the presence of (NH4)2 SO4 (0.5 g/ml). The concentrated extract was applied to an alumina column in benzene. After the column was washed with benzene, the unconjugated estrogens were eluted with 100 ml ethanol and the estrogen sulfates with ethanol:water (1:1, 100 ml). The conjugated fraction was further separated from trailing free estrogens by a single development of instant thin layer chromatography (SG; chloroform:acetone:acetic acid, 110:35:6). Marker estrogen sulfates run simultaneously were identified by staining with 50% methylene blue reagent (25 mg % methylene blue in 0.05 N sulfuric acid) in acetone.
(§7) The estrogen sulfates were hydrolyzed with aryl sulfatase^3 (5 mg/10 ml) in 0.1 M sodium acetate buffer (pH 5) for two days at 37° C. (without shaking or mixing) and the estrogen moiety extracted into ether. Both the unconjugated estrogens and those hydrolyzed from sulfate esters were further purified by the procedure of Brooks et al, Biochim. Biophys. Acta, 104:250-260 (1965) and the metabolites identified and quantitated on instant thin layer chromatography (SA; chloroform:methanol, 97:3) in accordance with Pack et al (1974), supra.

[2] = tested on: uteri obtained from fertilized pigs; experiment: in vitro; format: in vitro ADME, porcine; conditions: 0.003 µM
Text: as §4
as §1, with “(45 Ci/mmol) was” for “and [2,4,6,7-^3 H]E2 were”, “SO4 (800-1000 mCi/mmol)” for “SO4”
as §5, §6, §7

[3] = tested on: uteri obtained from fertilized pigs; conditions: average, uteri undergoing normal estrous cycle, regardless of phase; 0.003 µM; cited from earlier work

Percent of tritiated E2 oxidized to estrone (E1 + E1 sulfate), secretory (human endometrium; Table IV, secretory day 24, 60, 120, 300 mg tissue by row, 2 h, 3×10^-9 M E2, listed as E2, 120 min): 82%
oxidation of labeled E2 to E1 plus E1 sulfate, days 14 and 15 (human endometrium; same three endometrial curettings, days 14 and 15, listed as E2, 0.003 µM): 70% and 75% and 93%
metabolised at 2 h, 0.003 µM ([1]; secretory day 24, 60, 120, 300 mg tissue by row, read-out: Percent of tritiated E2 oxidized to estrone (E1 + E1 sulfate), secretory): 78%
metabolised at 2 h, 0.003 µM (in vitro; 2-hour incubation, day of insemination, read-out: sulfurylation of the 3-hydroxyl group, day of insemination): 3%
metabolised at 2 h, 0.003 µM (in vitro; Table III mean line (SD ± 5.7 on next line), read-out: Percent of added E2 found as Free E1, mean): 16.6%
metabolised at 2 h, 0.003 µM (in vitro; Table III, 25 (A), anovulatory gilt, 2 h incubation, read-out: Percent of added E2 found as Total E1, anovulatory gilt): 12.9%
sulfurylation in gilt uterus ([2]; 2-hour incubation, 5 to 23 days following fertilization, P<0.05 vs sow): 57.2±8.9%
sulfurylation in sow uterus ([2]; 2-hour incubation, 8 to 25 days following fertilization, P<0.05 vs gilt): 41.2±6.0%
Percent of added E2 found as E1 S, mean ([2]; Table III mean line, days 5-25 (SD ± 6.4)): 32.6%
Percent of added E2 found as Total E1, mean ([2]; Table III mean line, days 5-25 (SD ± 10.1)): 49.8%
Percent of added E2 found as Free E1 ([2]; Table III, 2 h incubation, 3×10^-9 M [3H]E2, by days following fertilization (S sow, G gilt), listed as E2, 120 min): 16.4%
conversion of added labeled E2 to E1 ([2]; metestrus, uteri from fertilized pigs): 13.6%
Structure (SMILES): C[C@]12CC[C@@H]3c4ccc(O)cc4CC[C@H]3[C@@H]1CC[C@@H]2O [1,3,5(10)Estratriene-3,17β-diol]
Percent of tritiated E2 sulfurylated, proliferative (human endometrium; Table IV, proliferative days 4-7, 55, 118, 329 mg tissue by row, 2 h, 3×10^-9 M E2): 0%
Percent of tritiated E2 oxidized to estrone, proliferative (human endometrium; Table IV, proliferative days 4-7, 55, 118, 329 mg tissue by row, 2 h, 3×10^-9 M E2, listed as E2, 120 min): 47% and 45%
metabolised at 2 h, 0.003 µM ([1]; proliferative days 4-7, 55, 118, 329 mg tissue by row, read-out: Percent of tritiated E2 oxidized to estrone, proliferative): 29%
added E2 found as free E1, normal estrous cycle [3]: 18.7±7.2%
